The target in one assay is GCN2 kinase (Homo sapiens (Human), UniProt Q9P2K8). Put plainly: Biochemical assay for GCN2 (TR-FRET kinase activity assay). Conditions: 1 mM ATP, 3-hour incubation. Put shortly: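 TR-FRET assay with 2 nM GCN2, 130 nM GFP-eIF2α substrate, 0.2 mg/mL E. coli tRNA and 1 mM ATP; compounds (0.5% DMSO) reacted 3 h. Stopped with 20 mM EDTA plus 2 nM Tb-anti-peIF2α (pSer52), 60 min RT; 520/490 ratio converted to % inhibition, IC50 from four-parameter fit.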

The next assay deals with PERK kinase (Homo sapiens (Human), UniProt Q9NZJ5). Put plainly: Biochemical assay for PERK (coupled pyruvate kinase/lactate dehydrogenase assay). Conditions: 1 mM ATP, rate from 2-3 h time frame. Put shortly:
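Coupled pyruvate kinase/lactate dehydrogenase readout of ATP hydrolysis via NADH oxidation (A340), 10 nM PERK, 0.25 mg/mL myelin basic protein, 1 mM ATP, pH 7.5 Tris/MgCl2 buffer, 1% DMSO. Absorbance followed 6 h at 30° C; rate from the 2-3 h window, normalised to no-compound and known-inhibitor controls, IC50 fitted.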

Assay [1] concerns ATF4 in H929 multiple myeloma cells. Kind of assay: H929 ATF4 ELISA assay (stimulation of cellular ATF4). In kind it is cell-based. The conditions noted are these: 4 h, no thapsigargin. Here is the method: H929 multiple myeloma cells (catalog #CRL-9068) were obtained from the American Type Culture Collection (ATTC, Manassas, VA). Briefly, cells were grown in RPMI-1640 medium supplemented with 20% heat-inactivated fetal bovine serum (catalog #A3840002, ThermoFisher Scientific, Waltham, MA), 1% Penicillin/Streptomycin/L-Glutamine (catalog #10378016, ThermoFisher Scientific, Waltham, MA), and 0.05 mM 2-mercaptoethanol (catalog #21985-023, ThermoFisher Scientific, Waltham, MA) at 37° C., 5% CO2, and 95% humidity. Cells were expanded until reaching one million five hundred thousand cells per mL at which time they were subcultured or harvested for assay use. One million five hundred thousand cells per well in 1 mL complete growth medium were dispensed into 12-well plates and incubated overnight. A serial dilution of test compound was added, and cells were incubated at 37° C., 5% CO2, and 95% for four hours. Cells were lysed then ATF4 levels were measured using an ELISA assay (Proteintech, Rosemont, IL). Absorbance is measured at 450 nm and 544 nM using a Synergy2 or equivalent reader (Biotek, Winooski VT). Data were analyzed using PRISM software (Graphpad, San Diego, CA) to calculate fold stimulation of cellular ATF4 relative to vehicle treated control.

Another assay deals with CCRF-CEM leukemia cells. Put plainly: CCRF-CEM ASNase cell proliferation assay, phenotypic assay for cellular inhibition of GCN2. In kind it is cell-based. The conditions noted are these: Homo sapiens; ASNase treated CCRF-CEM cells, 1 mU/mL ASNase, 72 h. Put shortly: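 Cells were seeded at ten thousand per well in RPMI-1640 with 10% heat-inactivated FBS and treated in triplicate with serially diluted compound plus 1 mU/mL ASNase for 72 h at 37 °C, 5% CO2. Resazurin was then added for 6 h, with fluorescence read at ex 540/em 600 nm to derive IC50 values.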

Assay [2] concerns phospho-GCN2 (Thr899) in HCT116 colorectal cancer cells. Kind of assay: HCT116 amino acid starved (-AA) phospho-GCN2 assay (Western blot). In kind it is cell-based. Conditions: Homo sapiens, HCT-116, 4 h, read-out: HCT116-AA pGCN2 Western Blot. The gist of the method:
(§1)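 HCT116 cells switched to amino-acid-free EBSS (10% dialyzed FBS, 5.5 mM glucose, vitamins) with serial compound dilutions for 4 h at 37° C. Lysates Western blotted for phospho-GCN2 (Thr899), total GCN2, ATF4 and beta-actin; IC50 values derived from quantified bands.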

In assay [3] the test system is ATF4 in HCT116 colorectal cancer cells. Kind of assay: HCT116 amino acid starved (-AA) ATF4 assay (Western blot). Format: cell-based. Conditions: Homo sapiens, HCT-116, 4 h. The gist of the method: as §1
In assay [4] the test system is ATF4 in CCRF-CEM leukemia cells (PERK). Put plainly: CCRF-CEM TG ATF4 ELISA, phenotypic assay for cellular inhibition of PERK preactivated by thapsigargin. In kind it is cell-based. The conditions noted are these: Homo sapiens; Thapsigargin (1 μM) stimulated CCRF-CEM cells.

Sequence of GCN2 kinase (Q9P2K8 whole entry): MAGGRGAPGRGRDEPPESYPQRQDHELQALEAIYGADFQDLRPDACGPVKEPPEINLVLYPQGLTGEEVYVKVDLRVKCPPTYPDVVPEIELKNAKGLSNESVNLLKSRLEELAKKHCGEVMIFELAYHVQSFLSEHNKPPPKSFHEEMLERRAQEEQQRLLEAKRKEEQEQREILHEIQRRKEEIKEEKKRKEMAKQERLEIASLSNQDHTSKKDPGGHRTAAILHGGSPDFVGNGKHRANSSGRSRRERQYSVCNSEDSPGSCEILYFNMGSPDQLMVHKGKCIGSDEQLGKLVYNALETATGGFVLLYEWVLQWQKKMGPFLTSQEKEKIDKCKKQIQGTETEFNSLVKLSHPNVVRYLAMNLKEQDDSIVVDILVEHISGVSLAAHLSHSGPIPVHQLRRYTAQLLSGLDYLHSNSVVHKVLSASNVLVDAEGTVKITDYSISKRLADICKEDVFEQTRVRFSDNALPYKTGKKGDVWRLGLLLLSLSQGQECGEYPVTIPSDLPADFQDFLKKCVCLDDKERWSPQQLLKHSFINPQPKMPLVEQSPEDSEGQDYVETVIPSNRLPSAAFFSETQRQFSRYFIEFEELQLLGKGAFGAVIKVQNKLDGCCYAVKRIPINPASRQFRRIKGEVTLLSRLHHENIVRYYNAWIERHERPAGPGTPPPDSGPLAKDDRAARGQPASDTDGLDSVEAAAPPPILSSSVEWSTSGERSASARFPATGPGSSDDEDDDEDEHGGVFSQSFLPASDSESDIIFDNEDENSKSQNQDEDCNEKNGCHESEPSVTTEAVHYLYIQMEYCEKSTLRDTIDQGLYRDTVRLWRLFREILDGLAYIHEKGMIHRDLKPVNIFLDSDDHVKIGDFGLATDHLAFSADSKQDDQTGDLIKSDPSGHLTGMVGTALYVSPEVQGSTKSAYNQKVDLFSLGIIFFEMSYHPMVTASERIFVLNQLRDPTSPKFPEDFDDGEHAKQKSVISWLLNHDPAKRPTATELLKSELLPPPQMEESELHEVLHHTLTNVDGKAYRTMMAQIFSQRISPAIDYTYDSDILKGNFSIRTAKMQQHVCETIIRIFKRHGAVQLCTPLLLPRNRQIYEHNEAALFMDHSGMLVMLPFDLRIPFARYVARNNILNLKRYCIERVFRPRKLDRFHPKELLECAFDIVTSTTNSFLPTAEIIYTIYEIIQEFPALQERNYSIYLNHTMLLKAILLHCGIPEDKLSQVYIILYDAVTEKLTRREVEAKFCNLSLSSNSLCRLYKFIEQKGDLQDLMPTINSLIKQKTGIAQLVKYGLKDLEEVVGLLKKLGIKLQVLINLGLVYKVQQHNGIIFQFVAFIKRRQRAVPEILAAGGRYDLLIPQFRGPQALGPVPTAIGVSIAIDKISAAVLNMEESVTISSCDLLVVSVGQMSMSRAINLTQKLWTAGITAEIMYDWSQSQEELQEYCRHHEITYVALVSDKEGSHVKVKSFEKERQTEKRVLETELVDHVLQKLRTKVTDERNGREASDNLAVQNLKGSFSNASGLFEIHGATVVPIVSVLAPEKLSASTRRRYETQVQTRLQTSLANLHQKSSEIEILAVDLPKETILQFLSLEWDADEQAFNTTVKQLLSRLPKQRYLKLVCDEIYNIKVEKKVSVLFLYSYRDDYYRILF
Sequence of PERK kinase (Q9NZJ5 other isoform, or with tags, fused parts or gaps): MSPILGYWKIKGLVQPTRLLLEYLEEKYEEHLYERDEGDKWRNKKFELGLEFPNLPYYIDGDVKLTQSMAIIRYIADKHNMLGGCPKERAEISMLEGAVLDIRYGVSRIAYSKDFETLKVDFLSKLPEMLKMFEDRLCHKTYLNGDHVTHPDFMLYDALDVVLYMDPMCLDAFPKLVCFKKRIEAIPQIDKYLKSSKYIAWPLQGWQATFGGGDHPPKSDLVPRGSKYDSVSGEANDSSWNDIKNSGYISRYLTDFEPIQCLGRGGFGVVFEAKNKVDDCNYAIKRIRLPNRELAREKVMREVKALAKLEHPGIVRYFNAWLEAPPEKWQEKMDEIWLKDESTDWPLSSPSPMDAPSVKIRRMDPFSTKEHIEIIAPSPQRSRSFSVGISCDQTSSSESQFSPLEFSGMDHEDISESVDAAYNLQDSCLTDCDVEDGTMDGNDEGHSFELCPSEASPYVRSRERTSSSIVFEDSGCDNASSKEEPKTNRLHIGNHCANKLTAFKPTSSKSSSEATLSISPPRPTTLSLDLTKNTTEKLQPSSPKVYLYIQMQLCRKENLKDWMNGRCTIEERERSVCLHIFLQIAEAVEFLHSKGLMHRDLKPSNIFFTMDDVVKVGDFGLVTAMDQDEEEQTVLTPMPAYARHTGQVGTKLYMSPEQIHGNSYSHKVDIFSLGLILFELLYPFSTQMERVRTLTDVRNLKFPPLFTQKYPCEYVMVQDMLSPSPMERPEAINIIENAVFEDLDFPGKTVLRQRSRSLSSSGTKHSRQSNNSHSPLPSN

Take `CNc1ncc2cc(-c3cccc(NS(=O)(=O)c4cc(Cl)cnc4OC)c3C(F)(F)F)ccc2n1` [Example 79]: the IC50 against GCN2 kinase and against PERK kinase was 100 to 500 nM each time. Also, the “H929 NS ATF4 ELISA (fold stimulation of ATF4 relative to vehicle)” value in assay [1] was “+++ (“+++” refers to an ATF4 stim greater than 10 fold and less than or equal to 20 fold)”.

On to `COc1ncc(Cl)cc1S(=O)(=O)Nc1cc(F)cc(-c2cnc3nc(N)ncc3c2)c1` [Example 86], for which the IC50 at GCN2 kinase and against PERK kinase was 1000 to 10000 nM in each case. Moreover, the “H929 NS ATF4 ELISA (fold stimulation of ATF4 relative to vehicle)” value in assay [1] is “+++ (“+++” refers to an ATF4 stim greater than 10 fold and less than or equal to 20 fold)”.

Turning to `COc1nc2nc(N)ncc2cc1-c1ccnc(NS(=O)(=O)c2cc(Cl)cnc2OC)c1F` [Example 135], the IC50 at GCN2 kinase was at most 100 nM; on PERK kinase, 100 to 500 nM; with CCRF-CEM leukemia cells it was 500 to 1000 nM; in assay [2] it was 100 to 500 nM; in assay [3], 1000 to 10000 nM; in assay [4] it was 1000 to 10000 nM.

Turning to `CNc1ncc2cc(-c3ccnc(NS(=O)(=O)c4cc(Cl)cnc4OC)c3F)c(OC)nc2n1` [Example 136], the IC50 against GCN2 kinase is at most 100 nM; against PERK kinase it was 100 to 500 nM; in the assay on CCRF-CEM leukemia cells, 100 to 500 nM; in assay [2], at most 100 nM; in assay [3] it was 100 to 500 nM; in assay [4] it was 1000 to 10000 nM.

As to `CNc1ncc2cc(-c3cccc(NS(=O)(=O)c4cc(Cl)cnc4NC4CC4)c3F)c(NC)nc2n1` [Example 137], the IC50 on GCN2 kinase is at most 100 nM; at PERK kinase, 100 to 500 nM; in the assay with CCRF-CEM leukemia cells it was at most 100 nM; in assay [2], at most 100 nM; in assay [3] it was at most 100 nM; in assay [4], 1000 to 10000 nM.

Consider `CNc1cc2nc(C)c(-c3cc(NS(=O)(=O)c4cc(Cl)cnc4OC)cc(F)c3F)cc2cn1` [Example 143], for which the IC50 against GCN2 kinase was at most 100 nM; at PERK kinase, at most 100 nM; in the assay on CCRF-CEM leukemia cells it was at most 100 nM; in assay [2] it was at most 100 nM; in assay [3] it was at most 100 nM; in assay [4], 1000 to 10000 nM.

`CNc1ncc2cc(-c3cccc(NS(=O)(=O)c4cc(Cl)ccc4OC)c3F)c(NC)nc2n1` [Example 148]: the IC50 was at most 100 nM on GCN2 kinase; at most 100 nM at PERK kinase; at most 100 nM in the assay with CCRF-CEM leukemia cells; at most 100 nM in assay [2]; at most 100 nM in assay [3]; 1000 to 10000 nM in assay [4].

Take `CNc1nc2nc(NC(C)=O)ncc2cc1-c1cccc(NS(=O)(=O)c2cc(Cl)cnc2OC)c1F` [Example 158]: the IC50 is at most 100 nM on GCN2 kinase; 100 to 500 nM against PERK kinase; at most 100 nM in the assay with CCRF-CEM leukemia cells; at most 100 nM in assay [2]; at most 100 nM in assay [3]; 1000 to 10000 nM in assay [4].

Turning to `Cc1nc2cc(N)ncc2cc1-c1cccc(NS(=O)(=O)c2cc(Cl)cc(CO)c2Cl)c1F` [Example 174], the IC50 (with CCRF-CEM leukemia cells; in assay [4]) was at most 100 nM throughout. The “H929 NS ATF4 ELISA (fold stimulation of ATF4 relative to vehicle)” value in assay [1] was “+++ (“+++” refers to an ATF4 stim greater than 10 fold and less than or equal to 20 fold)”.

Take `CNc1ncc2cc(-c3cccc(NS(=O)(=O)c4cc(Cl)cc(CO)c4Cl)c3F)c(NC)nc2n1` [Example 175]: the IC50 at GCN2 kinase is at most 100 nM; at PERK kinase, at most 100 nM; in the assay with CCRF-CEM leukemia cells, at most 100 nM; in assay [4], 100 to 500 nM. In addition, the “H929 NS ATF4 ELISA (fold stimulation of ATF4 relative to vehicle)” value in assay [1] is “+++ (“+++” refers to an ATF4 stim greater than 10 fold and less than or equal to 20 fold)”.

As to `CNc1ncc2cc(-c3cccc(NS(=O)(=O)c4cc(Cl)cc(CO)c4OC)c3F)c(NC)nc2n1` [Example 179], the IC50 against GCN2 kinase is at most 100 nM; against PERK kinase it was at most 100 nM; in the assay on CCRF-CEM leukemia cells it was at most 100 nM; in assay [4] it was 100 to 500 nM. Moreover, in assay [1], the “H929 NS ATF4 ELISA (fold stimulation of ATF4 relative to vehicle)” value is “+++ (“+++” refers to an ATF4 stim greater than 10 fold and less than or equal to 20 fold)”.

Source of the values: patent publication US11912668B2, “GCN2 and perk kinase inhibitors and methods of use thereof” (Deciphera Pharmaceuticals, LLC, priority 2020, dated 2024).
